In assay [1] the target is KAT7+JADE1+EAF6+ING5 4 protein complex (Homo sapiens (Human), UniProt O95251). Kind of assay: KAT7 JADE1 assay (SAMDI-MS acetylation of H3 1-21 peptide). The assay is classed as biochemical. To be noted: Morrison equation fit; replicate number in parentheses; read-out: KAT7 JADE1 Ki (nM) (replicate number).
The target in assay [2] is KAT6A Full length enzyme (Homo sapiens (Human), UniProt Q92794). Kind of assay: KAT6A assay (SAMDI-MS acetylation of H3 1-21 peptide). The assay is classed as biochemical. The settings on record: Morrison equation fit; replicate number in parentheses; read-out: KAT6A Ki (nM) (replicate number).
Sequence of KAT6A Full length enzyme (Q92794 other isoform, or with tags, fused parts or gaps): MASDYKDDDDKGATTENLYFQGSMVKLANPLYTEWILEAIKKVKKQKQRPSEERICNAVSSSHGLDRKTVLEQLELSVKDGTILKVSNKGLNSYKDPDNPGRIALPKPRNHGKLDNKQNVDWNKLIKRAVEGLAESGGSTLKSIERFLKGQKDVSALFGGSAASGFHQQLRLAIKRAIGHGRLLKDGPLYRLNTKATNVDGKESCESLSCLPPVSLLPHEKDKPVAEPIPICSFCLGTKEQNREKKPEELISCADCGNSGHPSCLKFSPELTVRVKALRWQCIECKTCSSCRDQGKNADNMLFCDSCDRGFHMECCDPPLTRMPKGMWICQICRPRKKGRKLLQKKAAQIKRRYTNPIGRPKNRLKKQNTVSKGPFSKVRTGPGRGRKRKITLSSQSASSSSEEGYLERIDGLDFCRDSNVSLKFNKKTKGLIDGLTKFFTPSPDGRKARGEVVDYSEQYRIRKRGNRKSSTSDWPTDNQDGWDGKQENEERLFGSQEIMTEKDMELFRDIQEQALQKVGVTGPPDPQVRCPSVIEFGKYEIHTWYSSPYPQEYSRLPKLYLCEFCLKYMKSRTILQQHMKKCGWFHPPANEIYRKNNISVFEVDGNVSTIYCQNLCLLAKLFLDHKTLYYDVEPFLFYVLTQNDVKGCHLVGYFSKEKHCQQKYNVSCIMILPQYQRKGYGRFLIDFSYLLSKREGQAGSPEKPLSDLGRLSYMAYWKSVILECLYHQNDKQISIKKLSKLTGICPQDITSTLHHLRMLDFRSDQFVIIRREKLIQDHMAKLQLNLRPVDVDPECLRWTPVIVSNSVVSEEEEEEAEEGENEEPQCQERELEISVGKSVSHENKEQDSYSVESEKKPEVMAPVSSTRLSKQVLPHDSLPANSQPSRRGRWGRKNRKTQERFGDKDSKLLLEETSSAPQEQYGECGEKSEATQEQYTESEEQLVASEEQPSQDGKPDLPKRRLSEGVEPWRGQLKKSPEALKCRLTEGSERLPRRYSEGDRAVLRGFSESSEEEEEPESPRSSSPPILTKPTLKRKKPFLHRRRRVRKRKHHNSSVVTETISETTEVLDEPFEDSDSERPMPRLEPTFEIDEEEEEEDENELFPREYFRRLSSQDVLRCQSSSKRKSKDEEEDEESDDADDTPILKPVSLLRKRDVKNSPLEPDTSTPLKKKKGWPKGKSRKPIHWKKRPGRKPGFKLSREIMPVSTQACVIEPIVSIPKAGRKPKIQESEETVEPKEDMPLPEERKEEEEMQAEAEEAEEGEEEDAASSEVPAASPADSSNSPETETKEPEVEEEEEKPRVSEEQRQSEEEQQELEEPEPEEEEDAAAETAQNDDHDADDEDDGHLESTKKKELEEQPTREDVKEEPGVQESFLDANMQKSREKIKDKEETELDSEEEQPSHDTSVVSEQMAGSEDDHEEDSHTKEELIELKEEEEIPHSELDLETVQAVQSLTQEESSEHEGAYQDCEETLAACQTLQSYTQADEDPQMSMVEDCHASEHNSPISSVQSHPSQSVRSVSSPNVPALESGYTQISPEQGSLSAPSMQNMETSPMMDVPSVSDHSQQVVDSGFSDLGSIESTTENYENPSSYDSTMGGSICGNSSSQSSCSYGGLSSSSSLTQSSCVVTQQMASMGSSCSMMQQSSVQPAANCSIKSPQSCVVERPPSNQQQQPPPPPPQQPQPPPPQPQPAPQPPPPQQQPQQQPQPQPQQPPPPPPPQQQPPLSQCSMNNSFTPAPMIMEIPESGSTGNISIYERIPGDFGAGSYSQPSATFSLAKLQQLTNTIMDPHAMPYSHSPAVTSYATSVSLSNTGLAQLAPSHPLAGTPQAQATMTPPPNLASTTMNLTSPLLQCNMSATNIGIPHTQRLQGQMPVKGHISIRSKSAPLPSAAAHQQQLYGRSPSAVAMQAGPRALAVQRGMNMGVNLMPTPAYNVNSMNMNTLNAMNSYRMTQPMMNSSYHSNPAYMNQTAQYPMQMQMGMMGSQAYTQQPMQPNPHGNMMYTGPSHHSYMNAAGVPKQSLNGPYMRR

The results in this text go back to patent US20250122183A1 (Pfizer Inc., priority 2023, published 2025).

What is called Ki is a measure of affinity in units of concentration, obtained from inhibition or displacement.

Take `COc1cc2c(NS(=O)(=O)c3c(OC)cc(CN4CCCC4(C)C)cc3OC)noc2cc1Nc1cc(C2CC2)n[nH]1` [Example 206, N-{6-[(3-cyclopropyl-1H-pyrazol-5-yl)amino]-5-methoxy-1,2-benzoxazol-3-yl}-4-[(2,2-dimethylpyrrolidin-1-yl)methyl]-2,6-dimethoxybenzene-1-sulfonamide]: the Ki in assay [1] came out at 28.8 nM; in assay [2], 4.4 nM.

For the molecule `COc1cc2c(NS(=O)(=O)c3c(OC)cc(-c4nccc(N(C)C)n4)cc3OC)noc2cc1Nc1cc(C2CC2)n[nH]1` [Example 216, N-{6-[(3-cyclopropyl-1H-pyrazol-5-yl)amino]-5-methoxy-1,2-benzoxazol-3-yl}-4-[4-(dimethylamino)pyrimidin-2-yl]-2,6-dimethoxybenzene-1-sulfonamide], the Ki was 1.6 nM in assay [1] and 0.2 nM in assay [2].

For the molecule `COc1cc2c(NS(=O)(=O)c3c(OC)cc(-c4cnc(N(C)C)cn4)cc3OC)noc2cc1Nc1cc(C2CC2)n[nH]1` [Example 217, N-{6-[(3-cyclopropyl-1H-pyrazol-5-yl)amino]-5-methoxy-1,2-benzoxazol-3-yl}-4-[5-(dimethylamino)pyrazin-2-yl]-2,6-dimethoxybenzene-1-sulfonamide], the Ki in assay [1] stood at 1.9 nM; in assay [2], 0.2 nM.

`COc1cc2c(NS(=O)(=O)c3c(OC)cc(-c4ncc(N(C)C)cn4)cc3OC)noc2cc1Nc1cc(C2CC2)n[nH]1` [Example 218, N-{6-[(3-cyclopropyl-1H-pyrazol-5-yl)amino]-5-methoxy-1,2-benzoxazol-3-yl}-4-[5-(dimethylamino)pyrimidin-2-yl]-2,6-dimethoxybenzene-1-sulfonamide]: the Ki in assay [1] turned out to be 0.4 nM; in assay [2] it was 0.1 nM.

For `COc1cc2c(NS(=O)(=O)c3c(OC)cc(-c4ccc(C)nn4)cc3OC)noc2cc1Nc1cc(C2CC2)n[nH]1` [Example 219, N-{6-[(3-cyclopropyl-1H-pyrazol-5-yl)amino]-5-methoxy-1,2-benzoxazol-3-yl}-2,6-dimethoxy-4-(6-methylpyridazin-3-yl)benzene-1-sulfonamide], the inhibition constant Ki was found to be 1.9 nM in assay [1] and 0.2 nM in assay [2].

Consider `COc1cc2c(NS(=O)(=O)c3c(OC)cc(-c4cc5n(n4)CCOC5)cc3OC)noc2cc1Nc1cc(C2CC2)n[nH]1` [Example 220, N-{6-[(3-cyclopropyl-1H-pyrazol-5-yl)amino]-5-methoxy-1,2-benzoxazol-3-yl}-4-(6,7-dihydro-4H-pyrazolo[5,1-c][1,4]oxazin-2-yl)-2,6-dimethoxybenzene-1-sulfonamide], for which the Ki in assay [1] was 4 nM; in assay [2] it was 0.4 nM.

Regarding `COc1cc2c(NS(=O)(=O)c3c(OC)cc(-c4ncc(C#N)cn4)cc3OC)noc2cc1Nc1cc(C2CC2)n[nH]1` [Example 224, 4-(5-cyanopyrimidine-2-yl)-N-{6-[(3-cyclopropyl-1 H-pyrazol-5-yl)amino]-5-methoxy-1,2-benzoxazol-3-yl}-2,6-dimethoxybenzene-1-sulfonamide], the Ki in assay [1] was determined as 7.2 nM; in assay [2], 1.5 nM.

On to `COc1cc2c(NS(=O)(=O)c3c(OC)cc(-c4ncc5c(n4)CN(C)CC5)cc3OC)noc2cc1Nc1cc(C2CC2)n[nH]1` [Example 225, N-{6-[(3-cyclopropyl-1 H-pyrazol-5-yl)amino]-5-methoxy-1,2-benzoxazol-3-yl}-2,6-dimethoxy-4-(7-methyl-5,6,7,8-tetrahydropyrido[3,4-d]pyrimidin-2-yl)benzene-1-sulfonamide], for which the Ki in assay [1] was found to be 7 nM; in assay [2] it was 0.6 nM.

In the case of `CCc1cc(Nc2cc3onc(NS(=O)(=O)c4c(OC)cc(-c5nccn5C)cc4OC)c3cc2OC)[nH]n1` [Example 237, N-{6-[(3-ethyl-1H-pyrazol-5-yl)amino]-5-methoxy-1,2-benzoxazol-3-yl}-2,6-dimethoxy-4-(1-methyl-1H-imidazol-2-yl)benzene-1-sulfonamide], the Ki in assay [1] came out at 15.4 nM; in assay [2] it was 1.4 nM.
